# The source made the active and inactive calls. The rule behind the calls is not given here.
# Legend:
# Staphylococcus aureus [1] = test: Inhibition of virulence production in pre-established 24 hr-old Staphylococcus aureus CECT 976 biofilms assessed as diameter of lipases halo at 10XMTC measured after 48 hrs in presence of 1XMIC tobramycin (reference value: 11.8 to 12.3 mm); assay type: functional
# Staphylococcus aureus [2] = test: Inhibition of virulence production in pre-established 24 hr-old Staphylococcus aureus CECT 976 biofilms assessed as diameter of siderophores halo at 10XMTC measured after 48 hrs (reference value: 11.5 to 11.8 mm); assay type: functional
# Staphylococcus aureus [3] = test: Antibiotic adjuvant activity against Staphylococcus aureus CECT 976 assessed as potentiation of tobramycin-induced antibacterial activity by measuring fractional inhibitory concentration index (MIC) at 62.5 ug/ml measured after 24 hrs by checkerboard assay; assay type: functional; details: dose 62.5 µg/ml
# Staphylococcus aureus [4] = test: Inhibition of virulence production in Staphylococcus aureus CECT 976 biofilms assessed as diameter of protease halo at 1XMTC measured after 72 hrs (reference value: 12 to 13 mm); assay type: functional
# Staphylococcus aureus [5] = test: Antibacterial activity against Staphylococcus aureus CECT 976 assessed as inhibition of bacterial growth incubated for 24 hrs by broth microdilution method; assay type: functional
# Pseudomonas aeruginosa [6] = test: Antibiotic adjuvant activity against Pseudomonas aeruginosa ATCC 10145 assessed as potentiation of ciprofloxacin-induced antibiofilm activity by measuring reduction in biofilm cells culturability at 500 ug/ml measured after 24 hrs in presence of ciprofloxacin by visual counting method; assay type: functional, organism-based; details: dose 500.0 µg/ml
# Cell membrane [7] = test: Disruption of membrane integrity in pre-established 24 hr-old Staphylococcus aureus CECT 976 biofilm at 10XMTC measured after 24 hrs by PI staining based flow cytomtery; assay type: subcellular
# Staphylococcus aureus [8] = test: Antibiotic adjuvant activity against Staphylococcus aureus CECT 976 assessed as potentiation of tobramycin-induced antibacterial activity by measuring fractional inhibitory concentration index (MBC) at 62.5 ug/ml measured after 24 hrs by checkerboard assay; assay type: functional; details: dose 62.5 µg/ml
# Staphylococcus aureus [9] = test: Antibiotic adjuvant activity against Staphylococcus aureus CECT 976 assessed as potentiation of tobramycin-induced antibiofilm activity by measuring reduction in biomass production at 500 ug/ml measured after 24 hrs in presence of tobramycin by crystal violet staining method; assay type: functional, organism-based; details: dose 500.0 µg/ml
# Pseudomonas aeruginosa [10] = test: Antibiotic adjuvant activity against Pseudomonas aeruginosa ATCC 10145 assessed as potentiation of ciprofloxacin-induced antibiofilm activity by measuring reduction in metabolic activity of biofilm cells at 500 ug/ml in presence of ciprofloxacin by resazurin staining based fluorescence analysis; assay type: functional, organism-based; details: dose 500.0 µg/ml
# Pseudomonas aeruginosa [11] = test: Antibacterial activity against Pseudomonas aeruginosa ATCC 10145 assessed as inhibition of bacterial growth incubated for 24 hrs by broth microdilution method; assay type: functional
# Staphylococcus aureus [12] = test: Inhibition of virulence production in Staphylococcus aureus CECT 976 biofilms assessed as diameter of gelatinases halo at 1/2XMTC measured after 48 hrs in presence of 1/4XMIC tobramycin (reference value: 11.3 to 11.8 mm); assay type: functional
# Staphylococcus aureus [13] = test: Antibacterial activity against Staphylococcus aureus CECT 976 assessed as inhibition of bacterial growth by measuring inhibition zone diameter at 1000 ug/ml incubated for 24 hrs in presence of tetracycline by disc diffusion method (reference value: 24 +/- 1.41 mm); assay type: functional; details: read-out: DIZ
# Staphylococcus aureus [14] = test: Antibiofilm activity against preestablished 24 hr-old Staphylococcus aureus CECT 976 assessed as reduction in metabolic activity of biofilm cells at MTC by resazurin staining based fluorescence analysis; assay type: functional, organism-based
# Cell membrane [15] = test: Disruption of membrane integrity in pre-established 24 hr-old Staphylococcus aureus CECT 976 assessed as reduction in number of cells at 10XMTC measured after 24 hrs in presence of 1XMIC tobramycin by SYTO9/PI dye based epifluorescence microscopy
# Staphylococcus aureus [16] = test: Inhibition of virulence production in Staphylococcus aureus CECT 976 biofilms assessed as diameter of gelatinases halo at 1XMTC measured after 48 hrs (reference value: 11.5 to 11.8 mm); assay type: functional
# Cell membrane [17] = test: Disruption of membrane integrity in pre-established 24 hr-old Staphylococcus aureus CECT 976 assessed as PI uptake at 10000 ug/ml measured after 24 hrs in presence of 1/4XMIC to MIC tobramycin by PI staining based flow cytometry; assay type: subcellular; details: dose 10000.0 µg/ml
# Staphylococcus aureus [18] = test: Bactericidal activity against Staphylococcus aureus CECT 976 assessed as bacterial killing incubated in MHB for 24 hrs and measured following culturing on agar plate for 24 hrs; assay type: functional; details: time 48 hrs
# Staphylococcus aureus [19] = test: Inhibition of virulence production in Staphylococcus aureus CECT 976 biofilms assessed as diameter of siderophores halo at 1XMTC measured after 48 hrs (reference value: 12 mm); assay type: functional
# Staphylococcus aureus [20] = test: Antibacterial activity against Staphylococcus aureus CECT 976 assessed as inhibition of bacterial growth by measuring inhibition zone diameter at 1000 ug/ml incubated for 24 hrs in presence of methicillin by disc diffusion method (reference value: 19.5 +/- 1.29 mm); assay type: functional; details: read-out: DIZ
# Staphylococcus aureus [21] = test: Antibiotic adjuvant activity against Staphylococcus aureus CECT 976 assessed as potentiation of tobramycin-induced antibacterial activity by measuring tobramycin MIC at 62.5 ug/ml measured after 24 hrs by checkerboard assay (reference value: 4 ug/ml); assay type: functional; details: dose 62.5 µg/ml
# Staphylococcus aureus [22] = test: Antibacterial activity against Staphylococcus aureus CECT 976 assessed as inhibition of bacterial growth by measuring inhibition zone diameter at 1000 ug/ml incubated for 24 hrs in presence of gentamicin by disc diffusion method (reference value: 12 +/- 1.63 mm); assay type: functional; details: read-out: DIZ
# Staphylococcus aureus [23] = test: Antibacterial activity against Staphylococcus aureus CECT 976 assessed as inhibition of bacterial growth by measuring inhibition zone diameter at 1000 ug/ml incubated for 24 hrs in presence of ciprofloxacin by disc diffusion method (reference value: 29.25 +/- 0.96 mm); assay type: functional; details: read-out: DIZ
# Staphylococcus aureus [24] = test: Inhibition of virulence production in pre-established 24 hr-old Staphylococcus aureus CECT 976 biofilms assessed as diameter of siderophores halo at 10XMTC measured after 48 hrs in presence of 1XMIC tobramycin (reference value: 11.3 +/-0.5 mm); assay type: functional
# Staphylococcus aureus [25] = test: Inhibition of virulence production in pre-established 24 hr-old Staphylococcus aureus CECT 976 biofilms assessed as diameter of lipases halo at 1XMTC measured after 48 hrs (reference value: 11.5 to 11.8 mm); assay type: functional
# Staphylococcus aureus [26] = test: Inhibition of virulence production in pre-established 24 hr-old Staphylococcus aureus CECT 976 biofilms assessed as diameter of protease halo at 10XMTC measured after 72 hrs in presence of 1/2XMIC tobramycin (reference value: 11.8 to 12.3 mm); assay type: functional
# Pseudomonas aeruginosa [27] = test: Antibacterial activity against Pseudomonas aeruginosa ATCC 10145 assessed as inhibition of bacterial growth by measuring inhibition zone diameter at 100 ug/ml incubated for 24 hrs in presence of tetracycline by disc diffusion method (reference value: 2 mm); assay type: functional; details: read-out: DIZ
# Staphylococcus aureus [28] = test: Inhibition of virulence production in pre-established 24 hr-old Staphylococcus aureus CECT 976 biofilms assessed as diameter of siderophores halo at 1XMTC measured after 48 hrs (reference value: 11.5 to 11.8 mm); assay type: functional
# [29] = Metal chelating activity at iron(III) in chrome azurol sulphonate solution assessed as absorption spectra peak around […] incubated for 30 mins by spectrophotometric analysis
Structure (SMILES),Activity (Staphylococcus aureus [1]) [mm],Activity (Staphylococcus aureus [2]) [mm],fractional inhibitory concentration index (FICI) (Staphylococcus aureus [3]),Activity (Staphylococcus aureus [4]) [mm],MIC (Staphylococcus aureus [5]) [µg/mL],Activity (Pseudomonas aeruginosa [6]),Activity (Cell membrane [7]) [%],fractional inhibitory concentration index (FICI) (Staphylococcus aureus [8]),Activity (Staphylococcus aureus [9]),Activity (Pseudomonas aeruginosa [10]),MIC (Pseudomonas aeruginosa [11]) [µg/mL],Activity (Staphylococcus aureus [12]) [mm],zone of inhibition at 1000 µg/mL (Staphylococcus aureus [13]) [mm],Activity (Staphylococcus aureus [14]),Activity (Cell membrane [15]),Activity (Staphylococcus aureus [16]) [mm],Activity (Cell membrane [17]) [%],MBC (Staphylococcus aureus [18]) [µg/mL],Activity (Staphylococcus aureus [19]) [mm],zone of inhibition at 1000 µg/mL (Staphylococcus aureus [20]) [mm],other results
O=c1cc(CO)occ1O [KOJIC ACID],2,9.3,0.3,0,> 1000,inactive,90,0.3,Active; Slight Increase Noted,inactive,> 1000,0,27.2,inactive,Active,0,50,> 1000,10,16,MIC (Staphylococcus aureus [21]): 1 µg/mL; zone of inhibition at 1000 µg/mL (Staphylococcus aureus [22]): 9.5 mm; zone of inhibition at 1000 µg/mL (Staphylococcus aureus [23]): 30.8 mm; Activity (Staphylococcus aureus [24]): 10 mm; Activity (Staphylococcus aureus [25]): 2.3 mm; Activity (Staphylococcus aureus [26]): 0 mm; zone of inhibition at 100 µg/mL (Pseudomonas aeruginosa [27]): 5 mm; Activity (Staphylococcus aureus [28]): 10 mm; Activity [29]: Active
Cc1occc(=O)c1O [MALTOL],2.3,10,0.3,0,> 1000,inactive,90,0.3,Active; Slight Increase Noted,inactive,> 1000,0,25.8,inactive,Active,0,50,> 1000,10,15.5,MIC (Staphylococcus aureus [21]): 1 µg/mL; zone of inhibition at 1000 µg/mL (Staphylococcus aureus [22]): 17.5 mm; zone of inhibition at 1000 µg/mL (Staphylococcus aureus [23]): 33 mm; Activity (Staphylococcus aureus [24]): 10.3 mm; Activity (Staphylococcus aureus [25]): 2.8 mm; Activity (Staphylococcus aureus [26]): 0 mm; zone of inhibition at 100 µg/mL (Pseudomonas aeruginosa [27]): 3.5 mm; Activity (Staphylococcus aureus [28]): 10 mm; Activity [29]: Active

# — ChEMBL document CHEMBL6120994, “Unravelling the potential of natural chelating agents in the control of Staphylococcus aureus and Pseudomonas aeruginosa biofilms” (Eur J Med Chem, 2025)
